Tested on: ear, irritant solution of 1% croton oil
Assay: topical anti-inflammatory activity, croton oil rat ear model (Fregnan and Torsello)
Format: in vivo, Rats, Charles River Wistar Strain, female
Details: 6 hours
Protocol: Compounds were tested for anti-inflammatory activity in a topical model based on that described by Fregnan G. B. and Torsello, A. L. (1975), Current Therapeutic Research 17, No. 4, 375-381. In outline the method is as follows:
Rats, Charles River Wistar Strain, female, 10/group. Weight range 200-240 g.
Irritant solution applied consists of 1% croton oil in tetrahydrofuran. 0.05 ml is placed on each ear, compound being included in the irritant solution on one ear. 6 hours later the ears are removed by cutting along the hairline and weighed.
-ve controls--no irritant solution.
+ve controls--irritant solution on both ears.

[1] = 3.0 mg/ear on the other (treated) ear
[2] = Rattus norvegicus, 2 mg/ear, topical, compound in irritant solution, read-out: Treated Ear % inhibition
[3] = Rattus norvegicus, topical, compound in irritant solution, read-out: Treated Ear % inhibition

Row | SMILES | inhibition in vivo at 2 mg/ear [2] | further results
1 | CC12CCC(=O)C=C1CCC(=Cc1ccccc1)C2=O (stereo not drawn) [Compound 1, 2-Benzylidene-3,4,8,8a-tetrahydro-8a-methyl-1,6(2H,7H)-naphthalenedione] | – | Non-Treated Ear % inhibition [1]: -1%; Non-Treated Ear wt. [1]: 136.5 ± 5.80 mg; inhibition in vivo at 3 mg/ear (Rattus norvegicus, 3.0 mg/ear, topical, compound in irritant solution, read-out: Treated Ear % inhibition): 70%
2 | CC12CCC(=O)C=C1CCC(=Cc1cccs1)C2=O (stereo not drawn) [Compound 2, 2-(2-Thienylmethylidene)-3,4,8,8a-tetrahydro-8a-methyl-1,6(2H,7H)-naphthalenedione] | 71% | –
3 | CC12CCC(=O)C=C1CCC(=Cc1ccc(Cl)cc1)C2=O (stereo not drawn) [Compound 3, 2-(4-Chlorobenzylidene)-3,4,8,8a-tetrahydro-8a-methyl-1,6-(2H,7H)-naphthalenedione] | 63% | –
4 | CC12CCC(=O)C=C1CCC(=Cc1ccco1)C2=O (stereo not drawn) [Compound 4, 2-(2-Furylmethylidene)-3,4,8,8a-tetrahydro-8a-methyl-1,6(2H,7H)-naphthalenedione] | 44% | –
5 | CC12CCC(=O)C=C1CCC(=Cc1cccc(Cl)c1)C2=O (stereo not drawn) [Compound 5, 2-(3-Chlorobenzylidene)-3,4,8,8a-tetrahydro-8a-methyl-1,6-(2H,7H)-naphthalenedione] | 41% | –
6 | CC12CCC(=O)C=C1CCC(=Cc1ccc(C#N)cc1)C2=O (stereo not drawn) [Compound 6, 4-[(3,4,8,8a-Tetrahydro-8a-methyl-1,6-dioxo(2H,7H)-naphthalen-2-yl)methylidene]benzonitrile] | 53% | Treated Ear wt. (2 mg/ear, topical, * p<0.05 vs control (Students t test)): 87.2 mg
7 | CC12CCC(=O)C=C1CCC(=Cc1ccc([N+](=O)[O-])cc1)C2=O (stereo not drawn) [Compound 7, 4-[(3,4,8,8a-Tetrahydro-8a-methyl-1,6-dioxo(2H,7H)-naphthalen-2-yl)methylidene]nitrobenzene] | 81% | –
8 | CN(C)c1ccc(C=C2CCC3=CC(=O)CCC3(C)C2=O)cc1 (stereo not drawn) [Compound 8, 2-(4-Dimethylaminobenzylidene)-3,4,8,8a-tetrahydro-8a-methyl-1,6(2H,7H)-naphthalenedione] | – | inhibition in vivo at 1.5 mg/ear [3]: 99%
9 | CC12CCC(=O)C=C1CCC(=Cc1ccc3c(c1)OCO3)C2=O (stereo not drawn) [Compound 9, 2-(3,4-Methylenedioxybenzylidene)-3,4,8,8,a-tetrahydro-8a-methyl-1,6(2H,7H)-naphthalenedione] | 100% | –
10 | CC12CCC(=O)C=C1CCC(=Cc1cccc(O)c1)C2=O (stereo not drawn) [Compound 10, 2-(3-Hydroxybenzylidene)3,4,8,8a-tetrahydro-8a-methyl-1,6(2H,7H)-naphthalenedione] | 98% | –
11 | COc1ccc(C=C2CCC3=CC(=O)CCC3(C)C2=O)cc1 (stereo not drawn) [Compound 11, 2-(4-Methoxybenzylidene)-3,4,8,8a-tetrahydro-8a-methyl-1,6(2H,7H)-naphthalenedione] | 95% | –
12 | CC12CCC(=O)C=C1CCC(=Cc1ccccc1)C2O (stereo not drawn) [Compound 14, 6-Benzylidene-4,4a,5,6,7,8-hexahydro-5-hydroxy-4a-methyl-2(3H)-naphthalenon] | – | inhibition in vivo at 1.5 mg/ear [3]: 107%
